In brackets after ≈: the same amount, converted by molar mass. Like-named read-outs stand apart in the source and are kept apart here.
Assays:
[1] = system: Escherichia coli NIHJ; assay: MIC against Escherichia coli NIHJ; type: cell-based
Excerpt: (§1) Below are described the antibacterial activities of the compounds in the compositions according to this invention.
(§2) The testing method complied with the standard method of Japan Sociaty of Chemotherapy.

[2] = system: Staphylococcus aureus FDA 209P; assay: MIC against Staphylococcus aureus FDA 209P; type: cell-based
Excerpt: as §1, §2

[3] = system: Desulfovibrio desulfuricans IFO 13699; assay: MIC against Desulfovibrio desulfuricans; type: cell-based
Excerpt: as §1, §2

[4] = system: Pseudomonas aruginosa IFO 3443; assay: MIC against Pseudomonas aeruginosa; type: cell-based
Excerpt: (§3) Below are described the antibacterial activities of the compounds in the compositions according to this invention. The results of antibacterial activity tests on the N-alkyl-substituted azaalkenelactams and their derivatives having a carboxylate radical of Examples 1 to 70 were as shown in Tables 1 to 3.
as §2

[5] = system: Bacillus subtilis ATCC 6633; assay: MIC against Bacillus subtilis ATCC 6633; type: cell-based
Excerpt: as §3, §2

[6] = system: Pasteurella multocida; assay: MIC against Pasteurella multocida; type: cell-based
Excerpt: as §3, §2

[7] = system: Salmonella typhinurium; assay: microbe, parasite or virus in culture; type: cell-based, Salmonella typhimurium; conditions: Table 3, heart infusion agar, 37° C., 24 hours, read-out: MIC
Excerpt: as §3, §2

[8] = system: Staphylococcus epidermidis; assay: MIC against Staphylococcus epidermidis; type: cell-based
Excerpt: as §3, §2

[9] = system: Streptococcus faecalis; assay: MIC against Streptococcus faecalis; type: cell-based
Excerpt: as §3, §2

[10] = Staphylococcus aureus, FDA209P, Table 1, azaalkenelactams, heart infusion agar, 37° C., 24 hours, read-out: MIC
[11] = Desulfovibrio desulfuricans, IFO13699, Table 1, azaalkenelactams, heart infusion agar, 37° C., 24 hours, read-out: MIC
[12] = Staphylococcus aureus, FDA209P, 24 h
[13] = Desulfovibrio desulfuricans, IFO13699, 24 h
[14] = Table 1, azaalkenelactams, heart infusion agar, 37° C., 24 hours
[15] = Table 3, heart infusion agar, 37° C., 24 hours
[16] = Escherichia coli, Table 2, derivatives having a carboxylate radical, heart infusion agar, 37° C., 24 hours, read-out: MIC
[17] = Escherichia coli, Table 1, azaalkenelactams, heart infusion agar, 37° C., 24 hours, read-out: MIC
[18] = Table 2, derivatives having a carboxylate radical, heart infusion agar, 37° C., 24 hours

CCCCCCCCCCCCCCNCCN1CCN=C(C)CC1=O [Example 35, 4-tetradecylaminoethyl-7-methyl-3,6-dihydro-2H-1,4-diazepin-5-one]
MIC ([1]; Escherichia coli, 24 h): 6.25 µg/mL (≈ 17.1 µM) | MIC [2, 10]: 1.56 µg/mL (≈ 4.27 µM) | MIC [3, 11]: 1.56 µg/mL (≈ 4.27 µM) | MIC ([4]; Pseudomonas, IFO3443, Table 3, heart infusion agar, 37° C., 24 hours, read-out: MIC): 54 µg/mL (≈ 148 µM) | MIC ([5]; Bacillus subtilis, ATCC6633, Table 3, heart infusion agar, 37° C., 24 hours, read-out: MIC): 3.12 µg/mL (≈ 8.53 µM) | MIC ([6]; Pasteurella multocida, 24 h): < 1.56 µg/mL | MIC [7]: 1.56 µg/mL (≈ 4.27 µM) | MIC ([8]; Staphylococcus epidermidis, 24 h): < 1.56 µg/mL | MIC ([9]; Enterococcus faecalis, Table 3, heart infusion agar, 37° C., 24 hours, read-out: MIC): 3.12 µg/mL (≈ 8.53 µM)

CCCCCCCCCCCCCCC(O)CNCCN1CCN=CCC(C)C1=O (stereo not shown) [Example 66, 4-(2-hydroxyhexadecyl)aminoethyl-6-methyl-2,3,6,7-tetrahydro-1,4-diazocin-5-one]
MIC ([1]; Escherichia coli, 24 h): 25 µg/mL (≈ 59 µM) | MIC [2, 12]: 12.5 µg/mL (≈ 29.5 µM) | MIC [3, 13]: 12.5 µg/mL (≈ 29.5 µM) | MIC ([4]; Pseudomonas, IFO3443, 24 h): 200 µg/mL (≈ 472 µM) | MIC ([5]; Bacillus subtilis, ATCC6633, 24 h): 6.25 µg/mL (≈ 14.8 µM) | MIC ([6]; Pasteurella multocida, Table 3, heart infusion agar, 37° C., 24 hours, read-out: MIC): < 1.56 µg/mL | MIC [7]: 3.12 µg/mL (≈ 7.36 µM) | MIC ([8]; Staphylococcus epidermidis, Table 3, heart infusion agar, 37° C., 24 hours, read-out: MIC): 1.56 µg/mL (≈ 3.68 µM) | MIC ([9]; Enterococcus faecalis, 24 h): 6.25 µg/mL (≈ 14.8 µM)

CCCCCCCCCCCCCCC(O)CNCCN1CCCN=CC(C)C1=O (stereo not shown) [Example 49, 1-(2-hydroxyhexadecyl)aminoethyl-3-methyl-3,6,7,8-tetrahydro-1,5-diazocin-2-one]
MIC [1]: 25 µg/mL (≈ 59 µM) | MIC [2, 14]: 3.12 µg/mL (≈ 7.36 µM) | MIC [3, 14]: 3.12 µg/mL (≈ 7.36 µM) | MIC [4, 15]: 200 µg/mL (≈ 472 µM) | MIC [5, 15]: 3.12 µg/mL (≈ 7.36 µM) | MIC [6, 15]: < 1.56 µg/mL | MIC [8, 15]: 1.56 µg/mL (≈ 3.68 µM) | MIC [9, 15]: 6.25 µg/mL (≈ 14.8 µM)

1-octadecylaminopropyl-4-methyl-1-aza-5-azoniacyclooct-4-en-2-one-5-propionate
MIC [1]: 100 µg/mL | MIC [2]: 6.25 µg/mL | MIC [3]: 6.25 µg/mL

CCCCCCCC/C=C\CCCCCCCC(=O)OCCN1CC[N+](CC(=O)[O-])=C(C)CC1=O [4-oleoyloxyethyl-7-methyl-1-azonia-4-azacyclohept-7-en-5-one-1-acetate]
MIC [1, 16]: 3200 µg/mL (≈ 6490 µM) | MIC [2, 12]: 200 µg/mL (≈ 406 µM) | MIC [3, 13]: 25 µg/mL (≈ 50.7 µM)

CCCCCCCCCCCCCCNCCN1CC[N+](CC(=O)[O-])=CC(C)C1=O (stereo not shown) [4-tetradecylaminoethyl-6-methyl-1-azonia-4-azacyclohept-7-en-5-one-1-acetate]
MIC ([1]; Escherichia coli, 24 h): 100 µg/mL (≈ 236 µM) | MIC [2, 12]: 6.25 µg/mL (≈ 14.8 µM) | MIC [3, 13]: 6.25 µg/mL (≈ 14.8 µM)

CCCCCCCC/C=C\CCCCCCCC(=O)OCCN1CCN=C(C)CC1=O [Example 13, 4-oleoyloxyethyl-7-methyl-3,6-dihydro-2H-1,4-diazepin-5-one]
MIC [1, 17]: 1600 µg/mL (≈ 3680 µM) | MIC [2, 12]: 100 µg/mL (≈ 230 µM) | MIC [3, 13]: 12.5 µg/mL (≈ 28.8 µM)

CCCCCCCCCc1ccc(OCC(O)CNCCNCCNCCN2CC[N+](CC(=O)[O-])=CCC(C)C2=O)cc1 (stereo not shown) [4-nonylphenoxy(2-hydroxy)propylaminoethylaminoethylaminoethyl-6-methyl-4-aza-1-azoniacyclooct-8-en-5-one-1-acetate]
MIC ([1]; Escherichia coli, 24 h): 400 µg/mL (≈ 662 µM) | MIC [2, 12]: 200 µg/mL (≈ 331 µM) | MIC [3, 13]: 50 µg/mL (≈ 82.8 µM)

4-(2-hydroxyhexadecyl)aminoethyl-6-methyl-3,6-dihydro-2H-1,4-diazepin-5-one [Example 41]
MIC [1]: 25 µg/mL | MIC [2, 14]: 3.12 µg/mL | MIC [3, 14]: 3.12 µg/mL | MIC [4, 15]: 100 µg/mL | MIC [5, 15]: 3.12 µg/mL | MIC [6, 15]: < 1.56 µg/mL | MIC [8, 15]: 1.56 µg/mL | MIC [9, 15]: 6.25 µg/mL

CCCCCCCCCCCCCCCCCCCCCC(=O)OCCCN1CCCN=C(C)CC1=O [Example 25, 1-behenoyloxypropyl-4-methyl-3,6,7,8-tetrahydro-1,5-diazocin-2-one]
MIC [1, 14]: 1600 µg/mL (≈ 3070 µM) | MIC [2]: 200 µg/mL (≈ 384 µM) | MIC [3]: 50 µg/mL (≈ 96 µM)

CCCCCCCCCCCC(=O)OCCN1CCCN=C(C)CC1=O [Example 14, 1-lauroyloxyethyl-4-methyl-3,6,7,8-tetrahydro-1,5-diazocin-2-one]
MIC [1, 17]: 1600 µg/mL (≈ 4370 µM) | MIC [2, 10]: 100 µg/mL (≈ 273 µM) | MIC [3, 13]: 12.5 µg/mL (≈ 34.1 µM)

CCCCCCCCCCCCN1CC[N+](CC(=O)[O-])=C(C)CC1=O [4-dodecyl-7-methyl-1-azonia-4-azacyclohept-7-en-5-on-1-acetate]
MIC [1, 16]: 3200 µg/mL (≈ 9080 µM) | MIC [2, 12]: 50 µg/mL (≈ 142 µM) | MIC [3, 13]: 12.5 µg/mL (≈ 35.5 µM)

CCCCCCCCC=CCCCCCCCCN1CCC[N+](CC(=O)[O-])=C(C)CC1=O [1-(9-octadecenyl)-4-methyl-1-aza-5-azoniacyclooct-4-en-2-one-5-acetate]
MIC [1, 16]: 800 µg/mL (≈ 1780 µM) | MIC [2, 12]: 12.5 µg/mL (≈ 27.9 µM) | MIC [3, 13]: 12.5 µg/mL (≈ 27.9 µM)

4-(2-hydroxyhexadecyl)aminoethyl-6-methyl-1-azonia-4-azacyclohept-7-en-5-one-1-acetate
MIC [1]: 100 µg/mL | MIC [2]: 12.5 µg/mL | MIC [3, 18]: 3.12 µg/mL

CCCCCCCCC=CCCCCCCCCN1CCN=CCCC1=O [Example 55, 4-(9-octadecenyl)-2,3,6,7-tetrahydro-1,4-diazocin-5-one]
MIC ([1]; Escherichia coli, 24 h): 200 µg/mL (≈ 531 µM) | MIC [2, 12]: 100 µg/mL (≈ 266 µM) | MIC [3, 13]: 50 µg/mL (≈ 133 µM)

4-isostearamidoethyl-7-methyl-1-azonia-4-azacyclohept-7-en-5-one-1-acetate
MIC [1, 18]: 3200 µg/mL | MIC [2]: 50 µg/mL | MIC [3]: 25 µg/mL

CCCCCCCCCCCCC(O)CN1CCCN=C(C)CC1=O (stereo not shown) [Example 27, 1-(2-hydroxy)tetradecyl-4-methyl-3,6,7,8-tetrahydro-1,5-diazocin-2-one]
MIC ([1]; Escherichia coli, 24 h): 25 µg/mL (≈ 70.9 µM) | MIC [2, 12]: 12.5 µg/mL (≈ 35.5 µM) | MIC [3, 11]: 6.25 µg/mL (≈ 17.7 µM)

CCCCCCCCCc1ccc(OCC(O)CNCCNCCNCCN2CCN=CCC(C)C2=O)cc1 (stereo not shown) [Example 69, 4-nonylphenoxy(2-hydroxy)propylaminoethylaminoethylaminoethyl-6-methyl-2,3,6,7-tetrahydro-1,4-diazocin-5-one]
MIC ([1]; Escherichia coli, 24 h): 200 µg/mL (≈ 366 µM) | MIC [2, 12]: 200 µg/mL (≈ 366 µM) | MIC [3, 13]: 50 µg/mL (≈ 91.6 µM)

CCCCCCCCCCCCC(O)CNCCN1CCN=C(C)CC1=O (stereo not shown) [Example 28, 4-(2-hydroxytetradecyl)aminoethyl-7-methyl-3,6-dihydro-2H-1,4-diazepin-5-one]
MIC ([1]; Escherichia coli, 24 h): 25 µg/mL (≈ 65.5 µM) | MIC [2, 12]: 25 µg/mL (≈ 65.5 µM) | MIC [3, 11]: 12.5 µg/mL (≈ 32.8 µM)

CCCCCCCCCCCCCCC(O)CNCCN1CCC[N+](CC(=O)[O-])=CC(C)(C)C1=O (stereo not shown) [1-(2-hydroxyhexadecyl)aminoethyl-3,3-dimethyl-1-aza-5-azoniacyclooct-4-en-2-one-5-acetate]
MIC ([1]; Escherichia coli, 24 h): 100 µg/mL (≈ 202 µM) | MIC [2, 12]: 12.5 µg/mL (≈ 25.2 µM) | MIC [3, 13]: 12.5 µg/mL (≈ 25.2 µM)

CCCCCCCCCCCCOCCNCCN1CC[N+](CC(=O)[O-])=C(C)CC1=O [4-dodecoxyaminoethyl-7-methyl-1-azonia-4-azacyclohept-7-en-5-one-1-acetate]
MIC ([1]; Escherichia coli, 24 h): 200 µg/mL (≈ 455 µM) | MIC [2, 12]: 25 µg/mL (≈ 56.9 µM) | MIC [3, 13]: 25 µg/mL (≈ 56.9 µM)

CCCCCCCCCCCCN1CCN=CC(C)C1=O (stereo not shown) [Example 42, 4-dodecyl-6-methyl-3,6-dihydro-2H-1,4-diazepin-5-one]
MIC ([1]; Escherichia coli, 24 h): 400 µg/mL (≈ 1360 µM) | MIC [2, 12]: 12.5 µg/mL (≈ 42.4 µM) | MIC [3, 13]: 6.25 µg/mL (≈ 21.2 µM)

1-nonylphenylpoly(2 moles)oxyethyleneoxyethyl-3,3-dimethyl-1-aza-5-azoniacyclooct-4-en-2-one-5-acetate
MIC [1]: 400 µg/mL | MIC [2]: 100 µg/mL | MIC [3]: 50 µg/mL

CCCCCCCCc1ccc(OCCOC(C)COC(C)CN2CCN=C(C)CC2=O)cc1 (stereo not shown) [Example 19]
MIC ([1]; Escherichia coli, 24 h): 400 µg/mL (≈ 843 µM) | MIC [2, 12]: 50 µg/mL (≈ 105 µM) | MIC [3, 13]: 25 µg/mL (≈ 52.7 µM)

CCCCCCCCCCCCN1CC[N+](CC(=O)[O-])=CC(C)C1=O (stereo not shown) [4-dodecyl-6-methyl-1-azonia-4-azacyclohept-7-en-5-one-1-acetate]
MIC [1, 16]: 800 µg/mL (≈ 2270 µM) | MIC [2, 12]: 25 µg/mL (≈ 70.9 µM) | MIC [3, 13]: 25 µg/mL (≈ 70.9 µM)

1-coconutalkyl-4-methyl-3,6,7,8-tetrahydro-1,5-diazocin-2-one [Example 15]
MIC [1, 14]: 1600 µg/mL | MIC [2]: 50 µg/mL | MIC [3]: 6.25 µg/mL

Reference: patent US4346087A, “Antibacterial surface active agent containing azaalkenelactam” (priority 1979, dated 1982)
